Experimental findings from patent US20160280699A1, “SUBSTITUTED PHENYLALANINE DERIVATIVES” (BAYER PHARMA AKTIENGESELLSCHAFT, priority 2013, published 2016) are described below.

A word on the IC50: it is the point on the concentration scale where inhibition reaches its midpoint. A high value points to a need for much substance.

The target in assay [1] is T1, human factor XIa (Homo sapiens, UniProt P03951).
T1 construct: purchased Kordia
Description: Measurement of FXIa inhibition (fluorogenic peptide substrate Boc-Glu(OBzl)-Ala-Arg-AMC). The class given is biochemical. The settings on record: factor XIa from Kordia, 15 min preincubation, 30 min at 22° C., fluorescence. The protocol: The factor XIa inhibition of the substances according to the invention is determined using a biochemical test system which utilizes the reaction of a peptidic factor XIa substrate to determine the enzymatic activity of human factor XIa. Here, factor XIa cleaves from the peptic factor XIa substrate the C-terminal aminomethylcoumarin (AMC), the fluorescence of which is measured. The determinations are carried out in microtitre plates.
Test substances are dissolved in dimethyl sulphoxide and serially diluted in dimethyl sulphoxide (3000 μM to 0.0078 μM; resulting final concentrations in the test: 50 μM to 0.00013 μM). In each case 1 μl of the diluted substance solutions is placed into the wells of white microtitre plates from Greiner (384 wells). Subsequently, the following are added successively: 20 μl of assay buffer (50 mmol/l Tris buffer pH 7.4; 100 mmol/l sodium chloride; 5 mmol/l calcium chloride; 0.1% bovine serum albumin) and 20 μl of factor XIa from Kordia (0.45 nM in assay buffer). After 15 min of incubation, the enzyme reaction is started by addition of 20 μl of the factor XIa substrate Boc-Glu(OBzl)-Ala-Arg-AMC dissolved in assay buffer (10 μM in assay buffer) from Bachem, the mixture is incubated at room temperature (22° C.) for 30 min and fluorescence is then measured (excitation: 360 nm, emission: 460 nm). The measured emissions of the test batches with test substance are compared to those of control batches without test substance (only dimethyl sulphoxide instead of test substance in dimethyl sulphoxide), and IC50 values are calculated from the concentration/activity relationships.

Assay [2] concerns human and animal plasma. Description: Determination of anticoagulatory activity: activated partial thromboplastin time (aPTT) in plasma. The settings on record: concentration of test substance which brings about a 1.5-fold extension of the aPTT, 37° C., C.K. Prest kit. Type of assay: biochemical. The protocol: The anticoagulatory activity of the test substances is determined in vitro in human and animal plasma (for example mouse, rat, rabbit, pig and dog plasma). To this end, blood is drawn off in a mixing ratio of sodium citrate/blood of 1:9 using a 0.11 molar sodium citrate solution as receiver. Immediately after the blood has been drawn off, it is mixed thoroughly and centrifuged at about 4000 g for 15 minutes. The supernatant is pipetted off.
The activated partial thromboplastin time (aPTT) is determined in the presence of varying concentrations of test substance or the corresponding solvent using a commercial test kit (C.K. Prest from Diagnostica Stago). The test compounds are incubated with the plasma and the PTT reagent (cephalin, kaolin) at 37° C. for 3 minutes. Coagulation is then started by addition of a 25 mM aqueous calcium chloride solution, and the time when coagulation occurs is determined. The concentration of test substance which brings about a 1.5-fold extension of the aPTT is determined Activity data from this test are listed in Table B below: […]

Each structure is given as a SMILES string. Structures can show the parent of a compound that is named as a salt.

T1 sequence (P03951 388-625 limits assumed): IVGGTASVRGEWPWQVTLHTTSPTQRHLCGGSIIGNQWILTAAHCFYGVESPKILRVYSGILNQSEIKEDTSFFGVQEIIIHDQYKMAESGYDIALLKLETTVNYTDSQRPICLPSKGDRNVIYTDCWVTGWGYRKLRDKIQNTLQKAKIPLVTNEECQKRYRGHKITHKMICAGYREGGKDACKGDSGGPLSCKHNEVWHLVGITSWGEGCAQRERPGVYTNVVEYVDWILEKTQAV
T1 sequence (P03951 19-387 partner limits assumed): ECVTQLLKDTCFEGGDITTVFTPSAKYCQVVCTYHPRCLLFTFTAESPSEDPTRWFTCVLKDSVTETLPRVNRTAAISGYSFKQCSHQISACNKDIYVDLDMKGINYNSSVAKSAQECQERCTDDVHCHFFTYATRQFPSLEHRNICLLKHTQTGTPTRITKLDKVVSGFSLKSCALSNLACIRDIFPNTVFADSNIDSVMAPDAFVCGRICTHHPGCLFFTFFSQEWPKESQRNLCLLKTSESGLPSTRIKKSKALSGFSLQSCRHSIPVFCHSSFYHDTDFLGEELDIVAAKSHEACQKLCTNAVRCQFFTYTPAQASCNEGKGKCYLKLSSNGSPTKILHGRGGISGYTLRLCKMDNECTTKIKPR

For the compound `NC[C@H]1CC[C@H](C(=O)N[C@@H](Cc2ccc(-c3ccnc(N4CCOCC4)c3)cc2)C(=O)Nc2ccc(-c3nn[nH]n3)cc2)CC1` [Example 35, N-alpha-{[trans-4-(Aminomethyl)cyclohexyl]carbonyl}-4-[2-(morpholin-4-yl)pyridin-4-yl]-N-[4-(2H-tetrazol-5-yl)phenyl]-L-phenylalaninamide hydrochloride], in assay [1], the IC50 came to 5.5 nM. In assay [2], the “aPTT” value stood at 0.48 µmol/L.

`NC[C@H]1CC[C@H](C(=O)N[C@@H](Cc2ccc(-c3cccnc3O)cc2)C(=O)Nc2ccc(-c3nn[nH]n3)cc2)CC1` [Example 37, N-alpha-{[trans-4-(Aminomethyl)cyclohexyl]carbonyl}-4-(2-hydroxypyridin-3-yl)-N-[4-(2H-tetrazol-5-yl)phenyl]-L-phenylalaninamide hydrochloride] registered an IC50 in assay [1] of 5.3 nM. Besides, in assay [2], the “aPTT” value amounted to 0.26 µmol/L.

The compound `CS(=O)(=O)c1cncc(-c2ccc(C[C@H](NC(=O)[C@H]3CC[C@H](CN)CC3)C(=O)Nc3ccc(-c4nn[nH]n4)cc3)cc2)c1` [Example 39, N-alpha-{[trans-4-(Aminomethyl)cyclohexyl]carbonyl}-4-[5-(methylsulphonyl)pyridin-3-yl]-N-[4-(2H-tetrazol-5-yl)phenyl]-L-phenylalaninamide hydrochloride] yielded an IC50 in assay [1] of 15 nM. For the same compound, the “aPTT” value in assay [2] came out at 0.38 µmol/L.

For `NC[C@H]1CC[C@H](C(=O)N[C@@H](Cc2ccc(-c3cnc(N4CCCCC4)nc3O)cc2)C(=O)Nc2ccc(-c3nn[nH]n3)cc2)CC1` [Example 40, N-alpha-{[trans-4-(Aminomethyl)cyclohexyl]carbonyl}-4-[4-hydroxy-2-(piperidin-1-yl)pyrimidin-5-yl]-N-[4-(2H-tetrazol-5-yl)phenyl]-L-phenylalaninamide hydrochloride], the IC50 in assay [1] came to 2.6 nM. For the same compound, the “aPTT” value in assay [2] was determined as 0.08 µmol/L.

With `Cc1cc(N2CCNCC2)ncc1-c1ccc(C[C@H](NC(=O)[C@H]2CC[C@H](CN)CC2)C(=O)Nc2ccc(-c3nn[nH]n3)cc2)cc1` [Example 41, N-alpha-{[trans-4-(Aminomethyl)cyclohexyl]carbonyl}-4-[4-methyl-6-(piperazin-1-yl)pyridin-3-yl]-N-[4-(2H-tetrazol-5-yl)phenyl]-L-phenylalaninamide hydrochloride], in assay [1], the IC50 amounted to 3.2 nM. Besides, the “aPTT” value in assay [2] stood at 0.06 µmol/L.

As for `NC[C@H]1CC[C@H](C(=O)N[C@@H](Cc2ccc(-c3ccnc(N4CCOCC4)c3Cl)cc2)C(=O)Nc2ccc(-c3nn[nH]n3)cc2)CC1` [Example 43, N-alpha-{[trans-4-(Aminomethyl)cyclohexyl]carbonyl}-4-[3-chloro-2-(morpholin-4-yl)pyridin-4-yl]-N-[4-(2H-tetrazol-5-yl)phenyl]-L-phenylalaninamide hydrochloride], in assay [1], the 50% inhibitory concentration (IC50) was determined as 1.8 nM. Besides, in assay [2], the “aPTT” value turned out to be 0.37 µmol/L.

In assay [1], `NC[C@H]1CC[C@H](C(=O)N[C@@H](Cc2ccc(-c3ccc(N4CCOCC4)nc3)c(F)c2)C(=O)Nc2ccc(-c3nn[nH]n3)cc2)CC1` [Example 44, N-alpha-{[trans-4-(Aminomethyl)cyclohexyl]carbonyl}-3-fluoro-4-[6-(morpholin-4-yl)pyridin-3-yl]-N-[4-(2H-tetrazol-5-yl)phenyl]-L-phenylalaninamide hydrochloride] registered an IC50 of 2 nM. In assay [2], the “aPTT” value stood at 0.22 µmol/L.

As for `CN(C)CCCOc1ccc(-c2ccc(C[C@H](NC(=O)[C@H]3CC[C@H](CN)CC3)C(=O)Nc3ccc(-c4nn[nH]n4)cc3)cc2F)cn1` [Example 45, N-alpha-{[trans-4-(Aminomethyl)cyclohexyl]carbonyl}-4-{6-[3-(dimethylamino)propoxy]pyridin-3-yl}-3-fluoro-N-[4-(2H-tetrazol-5-yl)phenyl]-L-phenylalaninamide hydrochloride], in assay [1], the IC50 turned out to be 13 nM. In assay [2], the “aPTT” value was determined as 0.35 µmol/L.

For `NC[C@H]1CC[C@H](C(=O)N[C@@H](Cc2ccc(-c3ccnc(N4CCOCC4)c3F)cc2)C(=O)Nc2ccc(-c3nn[nH]n3)cc2)CC1` [Example 46, N-alpha-{[trans-4-(Aminomethyl)cyclohexyl]carbonyl}-4-[3-fluoro-2-(morpholin-4-yl)pyridin-4-yl]-N-[4-(2H-tetrazol-5-yl)phenyl]-L-phenylalaninamide hydrochloride], half-maximal inhibition in assay [1] (IC50) required 3.7 nM. Further, in assay [2], the “aPTT” value was determined as 0.45 µmol/L.

On to `Cc1cc(N2CCNCC2)ncc1-c1ccc(C[C@H](NC(=O)[C@H]2CC[C@H](CN)CC2)C(=O)Nc2ccc(-c3nn[nH]n3)c(F)c2)cc1` [Example 47, N-alpha-{[trans-4-(Aminomethyl)cyclohexyl]carbonyl}-N-[3-fluoro-4-(2H-tetrazol-5-yl)phenyl]-4-[4-methyl-6-(piperazin-1-yl)pyridin-3-yl]-L-phenylalaninamide hydrochloride], for which, in assay [1], the IC50 stood at 1.1 nM. For the same compound, in assay [2], the “aPTT” value was determined as 0.08 µmol/L.

In turn, `Cc1cc(N2CCNCC2)ncc1-c1ccc(C[C@H](NC(=O)[C@H]2CC[C@H](CN)CC2)C(=O)Nc2ccc(-c3nnc(Cl)[nH]3)cc2)cc1` [Example 48, N-alpha-{[trans-4-(Aminomethyl)cyclohexyl]carbonyl}-N-[4-(3-chloro-4H-1,2,4-triazol-5-yl)phenyl]-4-[4-methyl-6-(piperazin-1-yl)pyridin-3-yl]-L-phenylalaninamide hydrochloride] registered an IC50 in assay [1] of 3.5 nM. In addition, in assay [2], the “aPTT” value amounted to 0.11 µmol/L.

As for `NC[C@H]1CC[C@H](C(=O)N[C@@H](Cc2ccc(-c3cncc(N)c3)cc2)C(=O)Nc2ccc(-c3nnn[nH]3)cc2)CC1` [Example 49, N-alpha-{[trans-4-(Aminomethyl)cyclohexyl]carbonyl}-4-(5-aminopyridin-3-yl)-N-[4-(1H-tetrazol-5-yl)phenyl]-L-phenylalaninamide hydrochloride], in assay [1], the IC50 amounted to 3.2 nM. For the same compound, in assay [2], the “aPTT” value turned out to be 0.14 µmol/L.

Compound `NC[C@H]1CC[C@H](C(=O)N[C@@H](Cc2ccc(-c3cccnc3C(F)(F)F)cc2)C(=O)Nc2ccc(-c3nnn[nH]3)cc2)CC1` [Example 50, N-alpha-{[trans-4-(Aminomethyl)cyclohexyl]carbonyl}-N-[4-(1H-tetrazol-5-yl)phenyl]-4-[2-(trifluoromethyl)pyridin-3-yl]-L-phenylalaninamide hydrochloride] returned an IC50 in assay [1] of 1.3 nM. The “aPTT” value in assay [2] was determined as 0.16 µmol/L.

In assay [1], `Cc1nc(N)ccc1-c1ccc(C[C@H](NC(=O)[C@H]2CC[C@H](CN)CC2)C(=O)Nc2ccc(-c3nnn[nH]3)cc2)cc1` [Example 51, N-alpha-{[trans-4-(Aminomethyl)cyclohexyl]carbonyl}-4-(6-amino-2-methylpyridin-3-yl)-N-[4-(1H-tetrazol-5-yl)phenyl]-L-phenylalaninamide hydrochloride] returned an IC50 of 3.7 nM. Besides, the “aPTT” value in assay [2] turned out to be 0.19 µmol/L.

Regarding `NC[C@H]1CC[C@H](C(=O)N[C@@H](Cc2ccc(-c3cncc(S(=O)(=O)NC4CCNCC4)c3)cc2)C(=O)Nc2ccc(-c3nnn[nH]3)cc2)CC1` [Example 52, N-alpha-{[trans-4-(Aminomethyl)cyclohexyl]carbonyl}-4-[5-(piperidin-4-ylsulphamoyl)pyridin-3-yl]-N-[4-(1H-tetrazol-5-yl)phenyl]-L-phenylalaninamide hydrochloride], the IC50 in assay [1] turned out to be 6.9 nM. Besides, the “aPTT” value in assay [2] came out at 0.21 µmol/L.

The compound `CN1CCN(c2cc(-c3ccc(C[C@H](NC(=O)C4CCC(CN)CC4)C(=O)Nc4ccc(-c5nnn[nH]5)cc4)cc3)ccn2)CC1` (stereo partly drawn) [Example 53, N-alpha-{[trans-4-(Aminomethyl)cyclohexyl]carbonyl}-4-[2-(4-methylpiperazin-1-yl)pyridin-4-yl]-N-[4-(1H-tetrazol-5-yl)phenyl]-L-phenylalaninamide hydrochloride] gave an IC50 in assay [1] of 11 nM. In addition, the “aPTT” value in assay [2] was found to be 0.21 µmol/L.

The compound `CN1CCN(c2ccc(-c3ccc(C[C@H](NC(=O)C4CCC(CN)CC4)C(=O)Nc4ccc(-c5nnn[nH]5)cc4)cc3)cn2)CC1` (stereo partly drawn) [Example 54, N-alpha-{[trans-4-(Aminomethyl)cyclohexyl]carbonyl}-4-[6-(4-methylpiperazin-1-yl)pyridin-3-yl]-N-[4-(1H-tetrazol-5-yl)phenyl]-L-phenylalaninamide hydrochloride] returned an IC50 in assay [1] of 7.2 nM. In addition, the “aPTT” value in assay [2] is 0.21 µmol/L.
